Assay: gradient 5% acetonitrile 3 min, to 50% in 2 min, to 85% in 15 min, held 3 min, 100 µL/min
Details: column: Zorbax Extend-C18 2.1 x 50 mm; eluents: water / acetonitrile, 0.1% formic acid
How it was run: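 Over 3 months, pure standards in mixtures of ~100 molecules were run by HPLC coupled to a quadrupole time-of-flight mass spectrometer in positive and negative ionization mode. The column was a Zorbax Extend-C18 (2.1 × 50 mm, 1.8 μm) at 100 μL/min, eluted with water and acetonitrile each holding 0.1% formic acid, with 40 μL dead and 900 μL dwell volumes. Retention time was determined from adduct peaks chosen by software and checked manually.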

Row | RP-LC retention time | SMILES
1 | 737 s | Nc1nc(N2CCc3ccccc3C2)ncc1C(=O)NCc1ccccc1
2 | 610 s | CC(C)c1ccc(S(=O)(=O)N(CCN2CCCCC2C)CC(=O)N2CCNCC2)cc1 (centres undefined)
3 | 854 s | CCc1nn2c(CNC(=O)c3ccsc3)c(-c3ccccc3)nc2s1
4 | 647 s | CN1CCN2c3ncccc3Cc3ccccc3[C@@H]2C1
5 | 780 s | CCCC(=O)N1CCCN(C2=NS(=O)(=O)C(c3ccc(F)cc3)=C2C)CC1
6 | 559 s | CCN1CCN(c2c(C(=O)c3ccc(C)cc3)cnc3cc(OC)c(OC)cc23)CC1
7 | 646 s | CCc1cc(=O)n(CC(=O)Nc2ccc(OC)c(OC)c2)c(N2CCOCC2)n1
8 | 765 s | Cc1cccc2c(=O)n(C3CCN(C(=O)Nc4ccc(F)cc4)CC3)cnc12
9 | 865 s | COc1ccccc1N1C(=O)CC(Sc2ccccc2N)C1=O (centres undefined)
10 | 687 s | CCOC(=O)N1CCN(S(=O)(=O)c2ccc(C(=O)Nc3cc(C)nn3C)cc2)CC1
11 | 793 s | CCc1c(C2CCN(C(=O)Nc3ccc(C)c(C)c3)CC2)noc1N
12 | 969 s | O=C(CSc1nnc2c3cc(-c4ccccc4)nn3ccn12)Nc1cccc(C(F)(F)F)c1
13 | 657 s | CCC(=O)Nc1cccn2nc(CC)nc12
14 | 640 s | Cc1ccc(-c2nc(C(=O)N(C)C)c3n2CCCCC3)cc1
15 | 800 s | Cc1ccc(CNC(=O)C2CCCN(c3nnc(C)c4c(C)n(-c5ccc(C)cc5)nc34)C2)cc1 (centres undefined)
16 | 733 s | CCC(=O)Nc1cc(C)n(Cc2ccccc2)n1
17 | 1180 s | Cc1nn(C(=O)CCc2ccccc2)c(C)c1S(=O)(=O)N1CCCC1
18 | 1140 s | CC(C)Oc1ccc(-c2noc(Cn3c(=O)n(-c4ccc(Cl)cc4)c(=O)c4sccc43)n2)cc1
19 | 646 s | Cc1nc(CC(=O)N2CCC(C(N)=O)CC2)cs1
20 | 692 s | CC(=O)Nc1ccc(C(=O)N(C2CC2)C2(C(=O)NCc3ccccc3)CCN(C(C)=O)CC2)cc1
21 | 629 s | CCc1ccc2[nH]c3c(c(=O)c2c1)CN(CC(=O)NCc1cccc(OC)c1)CC3
22 | 625 s | CC(=O)N1C(=O)C2(NCC(C)N2)c2ccccc21 (centres undefined)

Row | RP-LC retention time | SMILES
23 | 1310 s | CCCCOc1ccc(-c2nc(C3CC(=O)N(c4ccc(C)cc4)C3)no2)cc1 (centres undefined)
24 | 594 s | Cc1noc(C)c1CC(=O)N1CC(c2noc(C3CCCN3C)n2)C1 (centres undefined)
25 | 935 s | CC1=NS(=O)(=O)N(C)C=C1C(=O)OCc1cc(F)ccc1F
26 | 640 s | Cc1nc2cccnc2n1C1CCN(C(=O)Nc2ccc(F)cc2)CC1
27 | 755 s | Cc1nnc(NC(=O)CN2CCCCC2c2nc(C3CC3)no2)s1 (centres undefined)
28 | 726 s | Cc1ccc(NC(=O)CSc2nc3nc(C)cc(C)n3n2)cc1
29 | 624 s | CO[C@H]1C(=O)N(C2CCN(S(=O)(=O)c3ccc(C#N)cc3)CC2)[C@H]1c1ccncc1
30 | 681 s | CCC(=O)NCc1csc(C2CCCN(C(=O)C(C)(C)C)C2)n1 (centres undefined)
31 | 647 s | COc1ccc(NC(=O)NCCc2nc3cccnc3n2C2CCCC2)cc1OC
32 | 1050 s | CCOc1ccc(-c2noc(Cn3nc(-c4ccccc4F)ccc3=O)n2)cc1
33 | 745 s | O=S(=O)(c1ccc2nncn2c1)N(Cc1ccccc1F)c1ccc2c(c1)OCCO2
34 | 702 s | CN(C)c1nc2cc(C(=O)NCC3CC3)sc2n1-c1ccccc1
35 | 933 s | CCc1nn(C)c(=O)c2cc(S(=O)(=O)NCc3ccc(F)c(Cl)c3)cn12
36 | 606 s | C=CCNC(=O)c1c2c(nc3ccc(C)cc13)CCC2
37 | 792 s | CO/N=C(\C(=O)N[C@@H]1C(=O)N2C(C(=O)OCOC(=O)C(C)(C)C)=C(/C=C\c3scnc3C)CS[C@H]12)c1csc(N)n1
38 | 727 s | COc1ccc(NC(=O)N2CCC3(CC2)NC(=O)c2ccc(F)cc2N3C)cc1
39 | 825 s | CC(C)CNC(=O)c1ccc(-c2cccs2)nc1
40 | 866 s | Cc1ccc(NC(=O)C2CCCN(S(=O)(=O)c3c[nH]c(C(=O)N4CCCC4)c3)C2)cc1C (centres undefined)
41 | 904 s | Cn1ncc2c3ccccc3n(CC(=O)NCCc3ccco3)c2c1=O
42 | 654 s | CCN1C(=O)c2cccnc2Sc2cc(CNC(=O)c3ccc(NC(C)=O)cc3)ccc21
43 | 591 s | COc1cc(NC(=O)C2CCCN(C(=O)c3cc(-c4ccncc4)n[nH]3)C2)cc(OC)c1OC (centres undefined)
44 | 580 s | CCNc1cc(N2CCCC(CCC(=O)NCCOC)C2)ncn1 (centres undefined)

Row | RP-LC retention time | SMILES
45 | 629 s | Cc1ccn2c(Nc3ccc4c(c3)OCO4)c(-c3ccc(O)cc3)nc2c1
46 | 742 s | CSc1cccc(NC(=O)Nc2cccc(-c3ccc(N4CCOCC4)nn3)c2)c1
47 | 574 s | Cn1cc(S(=O)(=O)N2CCOCC2)cc1C(=O)N1CCN(c2ccccn2)CC1
48 | 624 s | COc1ccc(CNC(=O)c2ccc3ncnc(N4CCCC4)c3c2)cc1
49 | 1110 s | CC(C)Oc1ccc(CNC(=O)c2sc3ncccc3c2-n2cccc2)cc1
50 | 874 s | Cc1cc(C)cc(NC(=O)C2CCCN(S(=O)(=O)c3c[nH]c(C(=O)N4CCCC4)c3)C2)c1 (centres undefined)
51 | 897 s | CCc1noc(NC(C)=O)c1-c1ccc(C)c(S(=O)(=O)Nc2cccc(C)c2C)c1
52 | 826 s | CCN1c2ccc(C)cc2C(=O)NC12CCN(C(=O)c1ccc(F)c(F)c1)CC2
53 | 709 s | COc1ccc(C2(C(=O)N3CCc4nn(CC5CC5)c(=O)n4CC3)CC2)cc1
54 | 739 s | Cc1noc(C)c1CC(=O)N1CCCCCCNC(=O)[C@@H]2CCCC[C@@H]21
55 | 798 s | Cc1ccccc1Nc1c(-c2ccc(N(C)C)cc2)nc2c(C)cccn12
56 | 596 s | CCNc1cc(N2CCC(CCC(=O)N3CCCN(c4ncccn4)CC3)CC2)ncn1
57 | 700 s | O=C(Cn1cc(-c2ccccc2)c2ncnc(N3CCOCC3)c21)N1CCCCC1
58 | 871 s | O=C(N[C@H]1C[C@@H]2C[C@H]1CN2C(=O)c1ccc2c(c1)OCO2)c1cccs1
59 | 592 s | Cc1nc2cc(N3CCCC(C(=O)NCCN4CCCCCC4)C3)cnc2nc1C (centres undefined)
60 | 827 s | O=C(Nc1cc(-c2ccccn2)no1)C1CCCCC1
61 | 845 s | Cc1ccc(C)c(NC(=O)C2CCCN2S(=O)(=O)c2cc3c(cc2C)NC(=O)C(C)O3)c1 (centres undefined)
62 | 768 s | COc1ccc(C(=O)CSc2nnc3sc4ccccc4n23)cc1OC
63 | 823 s | CCCN(CC1CCOC1)C(=O)Nc1ccccc1CC (centres undefined)
64 | 947 s | O=C(Oc1cccnc1)c1cn(-c2ccc(Cl)cc2)c(=O)c2ccccc12
65 | 977 s | O=C(O)Cc1sc(Nc2ccc(F)c(F)c2F)nc1-c1ccccc1
66 | 683 s | CCOC(=O)c1c(N)n(-c2ccccc2)c2nc3ccccc3nc12

Row | RP-LC retention time | SMILES
67 | 739 s | Cc1cc(S(=O)(=O)N2CCC(n3cnnc3C)CC2)ccc1Cl
68 | 692 s | O=C(NC1CCCC1)c1cc(C2CC2)[nH]n1
69 | 683 s | Cc1nc(C)c(CCNS(=O)(=O)c2cc(Cl)ccc2Cl)s1
70 | 700 s | COc1cc(-c2nc3ncccn3c2Nc2cccc(C(F)(F)F)c2)ccc1O
71 | 558 s | CCN(CC)c1nc(C(=O)NCCN2CCOCC2)nc2nc(C)cc(C)c12
72 | 849 s | N#Cc1ccc(-c2nc(-c3ccc4c(c3)nnn4CCC(=O)N3CCCC3)no2)c(F)c1
73 | 690 s | O=C(O)c1cnc(-c2ccc(F)cc2)nc1-c1ccncc1
74 | 660 s | O=C1CCCN1CCCN1C(=O)[C@H]2CN(Cc3cccc(Cl)c3F)C[C@H]2C1=O
75 | 614 s | N#CCCN1CCN(c2cc(C(=O)O)c3cc(NC(=O)c4cccc(Cl)c4)ccc3n2)CC1
76 | 1070 s | Cc1ccc(C)c(NC(=O)C2CCN(S(=O)(=O)c3ccc4c(c3)sc(=O)n4C(C)C)CC2)c1
77 | 1010 s | CC1Cc2ccccc2N1C(=O)CSc1nnc(-c2ccccc2)o1 (centres undefined)
78 | 879 s | CCOc1ccccc1C(=O)NC1CCN(c2cc(-c3ccc(Cl)cc3)[nH]n2)C1 (centres undefined)
79 | 702 s | CC(C)N(C(=O)Cn1c(C2CC(=O)N(C(C)(C)C)C2)nc2ccccc21)c1ccccc1 (centres undefined)
80 | 875 s | CC(C)NC(=O)c1ccc(OCC2CCN(C(=O)CC(C)(C)C)CC2)cc1
81 | 641 s | O=C(NCc1csc(-c2ccccc2)n1)C1CCCN(c2ccc(-c3ccco3)nn2)C1 (centres undefined)
82 | 862 s | O=C(Cn1nc2c(cc1=O)CCCC2)Nc1nc(-c2ccc3c(c2)OCCCO3)cs1
83 | 668 s | COc1ccc(OC)c(NC(=O)Nc2c(-c3ccccc3)nc3ccccn23)c1
84 | 578 s | Cc1nc([C@@H]2CN(C(=O)c3noc(C)c3Cn3cccn3)C[C@H]2C(N)=O)n[nH]1
85 | 590 s | Cc1ccc(Nc2nc(N)nc(CN3CCN(c4ccccn4)CC3)n2)cc1
86 | 825 s | COc1ccc(Br)cc1Cn1nnc(C(=O)NCc2cccs2)c1N
87 | 710 s | O=C(CCn1ccc2cc(S(=O)(=O)N3CCCCCC3)ccc21)N1CCN(c2ccccn2)CC1
88 | 527 s | O=C(NCc1ccccn1)C(=O)Nc1nccs1

Row | SMILES | RP-LC retention time
89 | CCn1cc(C(=O)Nc2cccc(F)c2)c2cccnc21 | 892 s
